Assay results from US20230114728A1 (Venatorx Pharmaceuticals, Inc., priority 2019, published 2023).
≈ marks a conversion by molar mass, not a printed value. Read-outs that look alike come from different tables or passages of the source.

How the values were obtained:
Type in all cases: cell-based
E. coli AG100A = experiment: Broth microdilution MIC in CAMHB; conditions: Escherichia coli, read-out: Minimum Inhibitory Concentration, E. coli AG100A
Outline: (§1)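 CLSI microdilution; CAMHB; inoculum 2-8×10^5 CFU/mL from 3-5 h 37° C culture; 2-fold compound series; 16-20 h, 37° C; MIC = lowest well without visible growth.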

E. coli D22 = experiment: Broth microdilution MIC in CAMHB; conditions: Escherichia coli; E. coli D22 (hyper-permeable); MHB; read-out: Minimum Inhibitory Concentration, E. coli D22
Outline: as §1

[1] = test system: K. pneumoniae 848844 producing SHV-11 and KPC-2; experiment: Broth microdilution MIC in CAMHB; conditions: Klebsiella pneumoniae, read-out: Minimum Inhibitory Concentration, K. pneumoniae 848844
Outline: as §1

[2] = test system: K. pneumoniae SI-117 producing VIM-1; experiment: Broth microdilution MIC in CAMHB; conditions: Klebsiella pneumoniae, read-out: Minimum Inhibitory Concentration, K. pneumoniae SI-117
Outline: as §1

[3] = test system: P. aeruginosa (ΔmexAB-oprM); experiment: Broth microdilution MIC in CAMHB; conditions: Pseudomonas aeruginosa, read-out: Minimum Inhibitory Concentration, P. aeruginosa ΔmexAB-OprM
Outline: as §1

[4] = test system: N. gonorrhoeae ATCC 49226; experiment: Liquid broth MIC in Fastidious broth; conditions: Neisseria gonorrhoeae, ATCC49226, Fastidious broth
Outline: (§2)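 Colonies were swabbed from chocolate agar after 24 h growth and standardised by optical density at 600 nm. Compounds were serially diluted twofold in Fastidious broth, and bacteria added to give 5×10^5 CFU/mL. After about 24 h at 36 °C in 5% CO2, the lowest concentration allowing under 10% growth was taken as MIC.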

N. gonorrhoeae FA1090 = experiment: Liquid broth MIC in Fastidious broth; conditions: Neisseria gonorrhoeae, Fastidious broth
Outline: as §2

N. gonorrhoeae H041 = experiment: Liquid broth MIC in Fastidious broth; conditions: Neisseria gonorrhoeae
Outline: as §2

N. gonorrhoeae WHO G = experiment: Liquid broth MIC in Fastidious broth; conditions: Neisseria gonorrhoeae, Fastidious broth
Outline: as §2

N. gonorrhoeae WHO K = experiment: Liquid broth MIC in Fastidious broth; conditions: Neisseria gonorrhoeae
Outline: as §2

N. gonorrhoeae WHO L = experiment: Liquid broth MIC in Fastidious broth; conditions: Neisseria gonorrhoeae, Fastidious broth
Outline: as §2

N. gonorrhoeae WHO Q = experiment: Liquid broth MIC in Fastidious broth; conditions: Neisseria gonorrhoeae
Outline: as §2

N. gonorrhoeae WHO Z = experiment: Liquid broth MIC in Fastidious broth; conditions: Neisseria gonorrhoeae
Outline: as §2

[5] = N. gonorrhoeae ATCC 49226, read-out: Minimum Inhibitory Concentration, ATCC 49226
[6] = N. gonorrhoeae FA1090, read-out: Minimum Inhibitory Concentration, FA1090
[7] = H041, read-out: Minimum Inhibitory Concentration, H041
[8] = N. gonorrhoeae WHO G, read-out: Minimum Inhibitory Concentration, WHO G
[9] = read-out: Minimum Inhibitory Concentration, WHO K
[10] = N. gonorrhoeae WHO L, read-out: Minimum Inhibitory Concentration, WHO L
[11] = read-out: Minimum Inhibitory Concentration, WHO Q
[12] = read-out: Minimum Inhibitory Concentration, WHO Z
[13] = N. gonorrhoeae strain ATCC 49226, read-out: Minimum Inhibitory Concentration, N. gonorrhoeae ATCC 49226
[14] = N. gonorrhoeae strain FA1090, read-out: Minimum Inhibitory Concentration, N. gonorrhoeae FA1090
[15] = H041, read-out: Minimum Inhibitory Concentration, N. gonorrhoeae H041
[16] = N. gonorrhoeae strain WHO G, read-out: Minimum Inhibitory Concentration, N. gonorrhoeae WHO G
[17] = read-out: Minimum Inhibitory Concentration, N. gonorrhoeae WHO K
[18] = N. gonorrhoeae strain WHO L, read-out: Minimum Inhibitory Concentration, N. gonorrhoeae WHO L
[19] = read-out: Minimum Inhibitory Concentration, N. gonorrhoeae WHO Q
[20] = read-out: Minimum Inhibitory Concentration, N. gonorrhoeae WHO Z

Compound | MIC (E. coli AG100A) [µg/mL] | MIC (E. coli D22) [µg/mL] | MIC [1] [µg/mL] | MIC [2] [µg/mL] | MIC [3] [µg/mL] | MIC [4, 5] [µg/mL] | MIC (N. gonorrhoeae FA1090; [6]) [µg/mL] | MIC (N. gonorrhoeae H041; [7]) [µg/mL] | MIC (N. gonorrhoeae WHO G; [8]) [µg/mL] | MIC (N. gonorrhoeae WHO K; [9]) [µg/mL] | MIC (N. gonorrhoeae WHO L; [10]) [µg/mL] | MIC (N. gonorrhoeae WHO Q; [11]) [µg/mL] | MIC (N. gonorrhoeae WHO Z; [12]) [µg/mL] | MIC [4, 13] [µg/mL] | MIC (N. gonorrhoeae FA1090; [14]) [µg/mL] | MIC (N. gonorrhoeae H041; [15]) [µg/mL] | MIC (N. gonorrhoeae WHO G; [16]) [µg/mL] | MIC (N. gonorrhoeae WHO K; [17]) [µg/mL] | MIC (N. gonorrhoeae WHO L; [18]) [µg/mL] | MIC (N. gonorrhoeae WHO Q; [19]) [µg/mL] | also measured
NCCN1CCN(C(=O)N[C@H](C(=O)N[C@H]2Cc3cccc(C(=O)O)c3OB2O)c2c(F)cccc2F)C(=O)C1=O (single isomer, unassigned) [Example 204] | 32 to 64 (≈ 57.2 to 114 µM) | > 128 | > 128 | > 128 | > 128 | > 64 | 16 to 32 (≈ 28.6 to 57.2 µM) | > 64 | > 64 | > 64 | > 64 | > 64 | > 64 |  |  |  |  |  |  |  | 
NS(=O)(=O)Nc1ccc(F)c(C(NC(=O)N2CCN(CCF)C(=O)C2=O)C(=O)N[C@H]2Cc3cccc(C(=O)O)c3OB2O)c1 (stereo partly drawn) [Example 198, (3R)-3-(2-(2-fluoro-5-(sulfamoylamino)phenyl)-2-(4-(2-fluoroethyl)-2,3-dioxopiperazine-1-carboxamido)acetamido)-2-hydroxy-3,4-dihydro-2H-benzo[e][1,2]oxaborinine-8-carboxylic acid] | 0.5 to 1 (≈ 0.783 to 1.57 µM) | 0.5 to 1 (≈ 0.783 to 1.57 µM) | > 128 | 32 to 64 (≈ 50.1 to 100 µM) | 2 to 4 (≈ 3.13 to 6.27 µM) |  |  |  |  |  |  |  |  | 16 to 32 (≈ 25.1 to 50.1 µM) | 0.25 to 0.5 (≈ 0.392 to 0.783 µM) | 16 to 32 (≈ 25.1 to 50.1 µM) | 4 to 8 (≈ 6.27 to 12.5 µM) | 16 to 32 (≈ 25.1 to 50.1 µM) | > 64 | 16 to 32 (≈ 25.1 to 50.1 µM) | MIC (N. gonorrhoeae WHO Z; [20]): 16 to 32 µg/mL (≈ 25.1 to 50.1 µM)
CCN1CCN(C(=O)NC(C(=O)N[C@H]2Cc3cccc(C(=O)O)c3OB2O)c2ccc(C(=O)O)c(Cl)c2Cl)C(=O)C1=O (stereo partly drawn) [Example 201, (3R)-3-(2-(4-carboxy-2,3-dichlorophenyl)-2-(4-ethyl-2,3-dioxopiperazine-1-carboxamido)acetamido)-2-hydroxy-3,4-dihydro-2H-benzo[e][1,2]oxaborinine-8-carboxylic acid] | 32 to 64 (≈ 51.5 to 103 µM) | 2 to 4 (≈ 3.22 to 6.44 µM) | > 128 | > 128 | 8 to 16 (≈ 12.9 to 25.8 µM) | 4 to 8 (≈ 6.44 to 12.9 µM) | 1 to 2 (≈ 1.61 to 3.22 µM) | > 64 | 4 to 8 (≈ 6.44 to 12.9 µM) | 16 to 32 (≈ 25.8 to 51.5 µM) | > 64 | 16 to 32 (≈ 25.8 to 51.5 µM) | 16 to 32 (≈ 25.8 to 51.5 µM) |  |  |  |  |  |  |  | 
CCN1CCN(C(=O)NC(C(=O)N[C@H]2Cc3cccc(C(=O)O)c3OB2O)c2cc([N+](=O)[O-])c(O)cc2F)C(=O)C1=O (stereo partly drawn) [Example 184, (3R)-3-(2-(4-ethyl-2,3-dioxopiperazine-1-carboxamido)-2-(2-fluoro-4-hydroxy-5-nitrophenyl)acetamido)-2-hydroxy-3,4-dihydro-2H-benzo[e][1,2]oxaborinine-8-carboxylic acid] | 2 to 4 (≈ 3.41 to 6.81 µM) | 2 to 4 (≈ 3.41 to 6.81 µM) | > 128 | > 128 | 8 to 16 (≈ 13.6 to 27.2 µM) |  |  |  |  |  |  |  |  | 4 to 8 (≈ 6.81 to 13.6 µM) | < 0.125 | 16 to 32 (≈ 27.2 to 54.5 µM) | 1 to 2 (≈ 1.7 to 3.41 µM) | 16 to 32 (≈ 27.2 to 54.5 µM) | 16 to 32 (≈ 27.2 to 54.5 µM) | 4 to 8 (≈ 6.81 to 13.6 µM) | MIC (N. gonorrhoeae WHO Z; [20]): 4 to 8 µg/mL (≈ 6.81 to 13.6 µM)
CCN1CCN(C(=O)N[C@@H](C(=O)N[C@H]2Cc3cccc(C(=O)O)c3OB2O)c2ccc(C(=O)O)c(F)c2Cl)C(=O)C1=O (single isomer, unassigned) [Example 203] | 8 to 16 (≈ 13.2 to 26.5 µM) | 2 to 4 (≈ 3.31 to 6.61 µM) | > 128 | > 128 | 8 to 16 (≈ 13.2 to 26.5 µM) | 4 to 8 (≈ 6.61 to 13.2 µM) | 0.25 to 0.5 (≈ 0.413 to 0.827 µM) | 16 to 32 (≈ 26.5 to 52.9 µM) | 4 to 8 (≈ 6.61 to 13.2 µM) | 16 to 32 (≈ 26.5 to 52.9 µM) | > 64 | 4 to 8 (≈ 6.61 to 13.2 µM) | 4 to 8 (≈ 6.61 to 13.2 µM) |  |  |  |  |  |  |  | 
NCCN1CCN(C(=O)N[C@H](C(=O)N[C@H]2Cc3cccc(C(=O)O)c3OB2O)c2c(F)cccc2Cl)C(=O)C1=O (single isomer, unassigned) [Example 206] | 32 to 64 (≈ 55.6 to 111 µM) | > 128 | > 128 | > 128 | > 128 | > 64 | > 64 | > 64 | > 64 | > 64 | > 64 | > 64 | > 64 |  |  |  |  |  |  |  | 
